Common to all, as to assay: growth of human tumour cells (NCI), 48 h
Assay [1] deals with MDA-MB-435.
Assay [2] relates to UO-31.
Assay [3] has as its system CCRF-CEM.
The subject of assay [4] is HL-60.
Assay [5] relates to NCI-H23.
The test system of assay [6] is CAKI-1.
Assay [7] relates to SF-268.
Assay [8] deals with HCT-15.
In assay [9] the test system is NCI/ADR-RES.
In assay [10] the test system is SF-295.
The test system of assay [11] is SW-620.
Assay [12] concerns RXF 393.
The subject of assay [13] is OVCAR-3.
Assay [14] has as its system 786-0.
Assay [15] has as its system Malme-3M.
Assay [16] concerns DU-145.
In assay [17] the test system is COLO 205.
For assay [18], the system named is A498.
For assay [19], the system named is KM12.
The subject of assay [20] is U-251.

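Results reflect a 48-hour exposure of cells in 96-well plates to compound at five concentrations. Here, GI50 denotes the concentration required for 50% inhibition of growth.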 The source made the active and inactive calls. Cut-off read from the data, not from the text of the source: active = GI50 up to about 1.1 µM and inactive = higher. A value given as a limit tells only on which side of the number the result lay.

The values below come from ChEMBL document CHEMBL1201862, “PubChem BioAssay data set” (2004).

Regarding `COc1ccc(CNC(C)C(=O)O)cc1` (stereo not given), the GI50 was > 100 µM (inactive) in [1]; > 100 µM (inactive) in assay [2]; 19.7 µM (inactive) in assay [3]; > 100 µM (inactive) in assay [4]; > 100 µM (inactive) in [5]; > 100 µM (inactive) in assay [6]. Moreover, the GI50 in assay [7] is > 100 µM (inactive); in [8] it was greater than 100 µM; in assay [9] it was > 100 µM (inactive); in assay [10] it was > 100 µM (inactive); in [11], > 100 µM (inactive); in assay [12], > 100 µM (inactive). The GI50 in [13], in assay [14], in assay [15], in assay [16], in assay [17] and in [18] was > 100 µM (inactive) each time. For the same compound, the GI50 in assay [19] and in [20] was > 100 µM (inactive) in each case.

As for `O=C(O)CCc1ccc(-c2ccccc2)[nH]1`, the GI50 was > 100 µM (inactive) in assay [1]; > 100 µM (inactive) in [2]; 70.6 µM (inactive) in assay [3]; > 100 µM (inactive) in assay [4]; > 100 µM (inactive) in assay [5]; > 100 µM (inactive) in assay [6]. In addition, the GI50 in assay [7] was > 100 µM (inactive); in assay [8], greater than 100 µM; in assay [9], > 100 µM (inactive); in assay [10] it was > 100 µM (inactive); in [11] it was > 100 µM (inactive); in [12], > 100 µM (inactive). Further, the GI50 in assay [13], in [14], in assay [15], in assay [16], in assay [17] and in [18] was > 100 µM (inactive) in each case. The GI50 in assay [19] and in [20] was > 100 µM (inactive) in each case.

As for `CC(C)(C)OC(=O)NC(Cc1ccc(OCc2ccccc2)cn1)C(=O)O` (stereo not given), the GI50 in [1] is > 100 µM (inactive); in assay [2], > 100 µM (inactive); in assay [3], > 10 µM (inactive); in assay [4] it was > 100 µM (inactive); in assay [5] it was > 100 µM (inactive); in assay [6] it was > 100 µM (inactive). The GI50 in assay [7] was > 100 µM (inactive); in [8], greater than 100 µM; in assay [9], > 100 µM (inactive); in assay [10], > 100 µM (inactive); in assay [11] it was > 100 µM (inactive); in [12], > 100 µM (inactive). Further, the GI50 in assay [13], in [14], in assay [15], in [16], in [17] and in assay [18] was > 100 µM (inactive) each time. Further, the GI50 in assay [19] and in [20] was > 100 µM (inactive) each time.

Take `CCC(O)(Cc1ccc(OC)cc1)c1ccc(OC)cc1` (stereo not given): the GI50 in assay [1], in assay [2], in assay [3], in assay [4], in [5] and in [6] was > 100 µM (inactive) in each case. The GI50 in assay [7] was > 100 µM (inactive); in assay [8], greater than 100 µM; in [9], > 100 µM (inactive); in [10], > 100 µM (inactive); in assay [11], > 100 µM (inactive); in [12], > 100 µM (inactive). For the same compound, the GI50 in [13], in [14], in [15], in [16], in assay [17] and in assay [18] was > 100 µM (inactive) each time. Besides, the GI50 in assay [19] and in [20] was > 100 µM (inactive) each time.
